Data as given in PMC6353801, “Enhanced Anti-diabetic Effect of Berberine Combined With Timosaponin B2 in Goto-Kakizaki Rats, Associated With Increased Variety and Exposure of Effective Substances Through Intestinal Absorption” (Frontiers in Pharmacology, 2019).

Columns and labels:
[1] = test system: GK rats; assay: NFBG and FBG levels in GK rats, 6-week oral treatment; format: in vivo, rat; conditions: during 6-week treatment, TB-2 33.3, BBR 66.7, TB-2+BBR 100, metformin 200 mg/kg/day
Description: (§1) Four-week-old male GK rats were fed a high-fat diet, and age-matched non-diabetic Wistar rats were fed standard chow as the control group. Under these dietary conditions, blood glucose was estimated each week for 7 weeks in 12-h fasted rats using a portable glucometer (One Touch Sure Step Meter, Johnson & Johnson, United States) by drawing the blood from the tail vein. GK rats with fasting blood glucose levels (FBG) above 16.7 mM were considered as diabetic rats, and only uniformly diabetic rats were used in this study. […] All the drugs were suspended in 0.5% carboxymethylcellulose sodium (CMC-Na) solution for oral gavage (10 ml/kg) once per day (at 9:00) for 6 weeks. Simultaneously, the Wistar and vehicle groups received vehicle over the treatment period. Food consumption and body weight were measured every week throughout the experimental periods. Non-fasting blood glucose (NFBG) levels were determined by collecting blood samples from the tail vein (at 9:00), and FBG levels were determined after a 6-h fast (at 15:00) on days 0, 7, 14, 21, and 42. On day 28, an oral glucose tolerance test (OGTT) was performed after an overnight fast. […] On day 42, the rats were anesthetized with urethane (1.4 g/kg, dissolved in saline) after an overnight fast and were sacrificed to collect the liver, kidney, heart, and spleen. The organs were weighed after washing with saline and drying to calculate the organ coefficient, namely, the ratio between the weight of organs and the body in each rat.

[2] = usually in various species; ref Liu et al., 2016; cited from earlier work
[3] = test system: primary rat hepatocytes; assay: Hepatic metabolism in primary hepatocytes; conditions: 3 h
[4] = Transport in Caco-2 cells; format: in vitro ADME, human; conditions: human
Description: The culture medium was changed every other day for the first 7 days and then daily for the next 14 days. […] Prior to the transport experiments, the cell monolayers were washed three times with HBSS at 37°C. […] At the same time, the corresponding opposite side was filled with medium as the receiving chamber. After incubation for 30, 60, 90, and 120 min, 250-μl aliquots of the medium was taken from the receiving chamber at each time point, and prepared for analysis by HPLC–MS/MS. […] where (ΔQ/Δt) is the linear slope of the drug concentration in the receptor chamber over time, A represents the surface area of the membrane (1.12 cm^2), and C0 is the initial concentration of drug in the donor chamber. The efflux ratio (ERpermeability) for BL to AP and AP to BL transport was defined by the following equation: […] where Papp (BL–AP) and Papp (AP–BL) are the apparent permeability of drugs from the basolateral (BL) to apical (AP) and AP to BL sides of the monolayer, respectively.

[5] = Body weight, food intake, organ coefficients and side effects in GK rats; format: in vivo, rat
Description: as §1

[6] = Caco-2, no inhibitor, digoxin 10 μM, TB-2 5 μM, BBR 10 μM, n = 3

COc1ccc2cc3[n+](cc2c1OC)CCc1cc2c(cc1-3)OCO2 [BBR, berberine]
FBG levels compared with the vehicle group (in words) [1]: no significant differences | NFBG levels compared with the vehicle group (in words) [1]: no significant differences | bioavailability [2]: < 1% | share of compound disappearing after incubation ([3]; BBR 1 μM, 37°C): approximately 80% | effect on TB-2 levels after incubation ([3]; TB-2 1 μM, BBR (5 μM, 30 μM)): no improvement | efflux ratio at 120 min ([4]; Caco-2, Caco-2, no inhibitor, Papp (BL−AP)/Papp (AP−BL), read-out: ERpermeability (efflux ratio)): 71.4 | Papp A→B at 120 min [4, 6]: 0.38 ± 0.11 nm/s | Papp B→A at 120 min [4, 6]: 27.1 ± 3.55 nm/s | effect on body weight or food consumption vs vehicle ([5]; 6-week oral treatment): no effect | effect on organ coefficients (liver and kidney) vs vehicle ([5]; day 42): limited
